From patent publication US20220298146A1, “HETEROCYCLIC DERIVATIVE AND USE THEREOF” (Transthera Sciences (Nanjing), Inc., priority 2019, published 2022)

Key:
[1] = target: T1, LCK (h) (Homo sapiens, UniProt P06239); assay: Enzymatic activity assay, LCK (h) kinase, [γ-33P]-ATP; format: biochemical; conditions: 10 μM [γ-33P]-ATP, 40 min, room temperature; read-out: Inhibitory Activity on LCK (h) kinase, IC50
T1 construct: purchased
Description: (§1) Test samples: the compounds of the present invention, having structures and preparation methods shown above.
Preparation of Compound Stock Solutions:
(§2) Compounds were each dissolved in 100% DMSO to prepare stock solutions with a maximum concentration of 500 μM.
Preparation of Compound Working Solutions:
(§3) The compound stock solutions were diluted to final concentrations of 500 μM, 150 μM, 50 μM, 15 μM, 5 μM, 1.5 μM, 0.5 μM, 0.15 μM and 0.05 μM to prepare compound working solutions (50×).
Preparation of Different Enzymatic Reaction Solutions:
LCK (h) enzyme was dissolved in a mixture of 50 mM Tris (pH 7.5), 0.1 mM EGTA, 0.1 mM Na3VO4 and 250 μM KVEKIGEGTYGVVYK to prepare an enzyme solution with a final concentration of 45 nM. An Mg/ATP mixture of 10 mM magnesium acetate and 10 μM [γ-^33P]-ATP was used to activate the enzymatic reaction.
(§4) The compound working solutions were added to a 384-well plate, with final concentrations of 10000 nM, 3000 nM, 1000 nM, 300 nM, 100 nM, 30 nM, 10 nM, 3 nM and 1 nM, respectively, and then different enzymatic reaction solutions prepared according to the above conditions were added. The reaction solutions were incubated at room temperature for 40 min, and then 0.5% phosphoric acid solutions were added to terminate the reaction. 10 μL of the reaction solution was added dropwise to P30 filter paper which was washed 4 times with a 0.425% phosphoric acid solution and once with methanol and then placed in a scintillation counter for detection. Gray analysis was performed on the results with Image J software, and IC50 values were calculated with GraphPad 5.0 software.

[2] = target: T2, H1299 cell pAxl (Homo sapiens, UniProt P30530); assay: Inhibitory activity on cell pAxl (H1299 cells, hGAS6 stimulation, Western Blot); format: cell-based; conditions: hGAS6 200 ng/mL, tested at 1.1, 3.3, 10 and 30 nM, read-out: Inhibitory Activity on Cell pAx1, IC50
T2 construct: endogenous in cells; host or cells: H1299
T2 sequence (P30530 26-894): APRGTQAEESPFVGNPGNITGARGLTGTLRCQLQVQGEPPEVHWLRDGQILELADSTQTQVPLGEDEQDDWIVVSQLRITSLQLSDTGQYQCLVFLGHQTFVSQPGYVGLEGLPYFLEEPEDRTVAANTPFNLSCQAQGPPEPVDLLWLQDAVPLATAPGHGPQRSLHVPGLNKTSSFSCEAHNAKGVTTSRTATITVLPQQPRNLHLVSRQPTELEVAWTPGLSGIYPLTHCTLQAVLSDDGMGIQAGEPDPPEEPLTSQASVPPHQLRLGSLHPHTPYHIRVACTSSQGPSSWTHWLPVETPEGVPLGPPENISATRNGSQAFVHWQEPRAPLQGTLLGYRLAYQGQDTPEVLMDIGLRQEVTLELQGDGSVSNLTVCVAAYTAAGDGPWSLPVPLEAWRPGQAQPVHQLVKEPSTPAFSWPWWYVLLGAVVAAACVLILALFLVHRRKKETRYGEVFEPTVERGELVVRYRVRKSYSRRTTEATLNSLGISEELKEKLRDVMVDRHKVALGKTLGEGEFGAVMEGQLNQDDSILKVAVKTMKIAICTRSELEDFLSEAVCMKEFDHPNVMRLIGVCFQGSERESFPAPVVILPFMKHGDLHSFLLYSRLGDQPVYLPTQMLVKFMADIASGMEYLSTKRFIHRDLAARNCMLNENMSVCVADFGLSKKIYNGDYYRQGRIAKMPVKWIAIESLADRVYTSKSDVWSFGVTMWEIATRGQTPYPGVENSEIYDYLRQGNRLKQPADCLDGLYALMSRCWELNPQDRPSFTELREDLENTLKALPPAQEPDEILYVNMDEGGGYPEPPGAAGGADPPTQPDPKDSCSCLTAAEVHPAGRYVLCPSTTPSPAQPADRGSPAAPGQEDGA
Description: H1299 is a non-small cell lung cancer cell.
Test samples: the compounds of the present invention, having structures shown above.
Test instruments: protein electrophoresis apparatus (made by Bio Rad), membrane transfer apparatus (made by Bio Rad), exposure apparatus (made by Tanon), and CO2 cell incubator (made by Thermo).
H1299 cells were inoculated into a 6-well plate (containing 10% FBS 1640 medium, 5×10^5 cells per well) and adherently cultivated at 37° C. and 5% CO2 for 18 h. The cells were starved overnight, and compounds with different concentrations were added. The compounds had final concentrations of 1.1 nM, 3.3 nM, 10 nM and 30 nM, with DMSO having a final concentration of 1‰. There was a medium containing 10‰ DMSO in the negative control well. The cells were incubated at 37° C. and 5% CO2 for 60 min, and then hGAS6 (R&D, final concentration: 200 ng/mL) was added to each well. The cells were further incubated for 60 min, and then the total protein of the cells was extracted for Western Blot experiment. IC50 values were calculated with GraphPad 5.0 software, and the inhibitory activities of the compounds on cell pAxl were detected.

[3] = target: T3, Axl (h) (Homo sapiens, UniProt P30530); assay: Enzymatic activity assay, Axl (h) kinase, [γ-33P]-ATP; format: biochemical; conditions: 10 μM [γ-33P]-ATP, 40 min, room temperature; read-out: Inhibitory Activity on Ax1 (h), IC50
T3 construct: purchased
T3 sequence (P30530 26-894): T2 sequence (P30530 26-894)
Description: as §1
(1) Preparation of Compound Stock Solutions
as §2
(2) Preparation of Compound Working Solutions
as §3
(3) Preparation of different enzymatic reaction solutions
Axl (h) enzyme was dissolved in a mixture of 8 mM MOPS (pH 7.0), 0.2 mM EDTA and 250 μM KKSRGDYMTMQIG to prepare an enzyme solution with a final concentration of 1.7 nM. An Mg/ATP mixture of 10 mM magnesium acetate and 10 μM [γ-^33P]-ATP was used to activate the enzymatic reaction.
as §4

T1 sequence (P06239 whole entry): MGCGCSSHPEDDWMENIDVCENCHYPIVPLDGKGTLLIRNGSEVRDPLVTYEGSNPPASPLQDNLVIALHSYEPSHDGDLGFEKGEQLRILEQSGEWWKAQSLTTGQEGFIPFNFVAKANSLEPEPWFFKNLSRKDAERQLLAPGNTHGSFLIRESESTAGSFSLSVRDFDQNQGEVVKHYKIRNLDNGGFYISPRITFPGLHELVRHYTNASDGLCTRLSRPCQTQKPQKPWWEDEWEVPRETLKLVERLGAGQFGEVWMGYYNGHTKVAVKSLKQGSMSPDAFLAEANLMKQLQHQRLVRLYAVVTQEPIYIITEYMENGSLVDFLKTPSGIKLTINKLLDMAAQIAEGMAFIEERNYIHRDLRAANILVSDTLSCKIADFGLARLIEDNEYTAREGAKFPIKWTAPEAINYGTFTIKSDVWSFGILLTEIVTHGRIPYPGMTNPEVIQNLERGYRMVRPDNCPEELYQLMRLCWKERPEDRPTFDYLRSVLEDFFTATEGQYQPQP

| SMILES | IC50 [1] | IC50 [2] | IC50 [3] |
| --- | --- | --- | --- |
| CC(C)n1cc(-c2ccc(F)cc2)c(=O)c(C(=O)Nc2ncc(Oc3ccnc(N)c3Cl)cn2)n1 [Compound 12, N-(5-((2-amino-3-chloropyridin-4-yl)oxy)pyrimidin-2-yl)-5-(4-fluorophenyl)-1-isopropyl-4-oxo-1,4-dihydropyridazine-3-carboxamide] | 53 nM | 3.3 nM | 23 nM |
| Nc1nccc(Oc2cnc(NC(=O)c3nn(C4CC4)cc(-c4ccc(F)cc4)c3=O)nc2)c1Cl [Compound 18, N-(5-((2-amino-3-chloropyridin-4-yl)oxy)pyrimidin-2-yl)-5-(4-fluorophenyl)-1-cyclopropyl-4-oxo-1,4-dihydropyridazine-3-carboxamide] |  | 3.3 nM | 8 nM |
| Nc1nccc(Oc2ccc(NC(=O)c3nn(C4CC4)cc(-c4ccc(F)cc4)c3=O)cn2)c1Cl [Compound 19, N-(6-((2-amino-3-chloropyridin-4-yl)oxy)pyridin-3-yl)-1-cyclopropyl-5-(4-fluorophenyl)-4-oxo-1,4-dihydropyridazine-3-carboxamide] | 104 nM | 3.3 to 10 nM | 12 nM |
| Cn1cc(-c2ccc(F)cc2)c(=O)c(C(=O)Nc2ccc(Oc3ccnc(N)c3Cl)cn2)n1 [Compound 33, N-(5-((2-amino-3-chloropyridin-4-yl)oxy)pyridin-2-yl)-5-(4-fluorophenyl)-1-methyl-4-oxo-1,4-dihydropyridazine-3-carboxamide] | 26 nM | 3.3 to 10 nM | 12 nM |
| C=CCn1cc(-c2ccc(F)cc2)c(=O)c(C(=O)Nc2ncc(Oc3ccnc(N)c3Cl)cn2)n1 [Compound 37] |  | 1.1 nM | 9 nM |

Results, then the compound that gave them:

| IC50 [1] | IC50 [2] | IC50 [3] | SMILES |
| --- | --- | --- | --- |
| 20 nM | < 1.1 nM | 6 nM | CC(C)n1cc(-c2ccc(F)cc2)c(=O)c(C(=O)Nc2ccc(Oc3ccnc(N)c3Cl)cn2)n1 [Compound 11, N-(5-((2-amino-3-chloropyridin-4-yl)oxy)pyridin-2-yl)-5-(4-fluorophenyl)-1-isopropyl-4-oxo-1,4-dihydropyridazine-3-carboxamide] |
| 132 nM | 1.1 to 3.3 nM | 9 nM | CC(C)n1cc(-c2ccc(F)cc2)c(=O)c(C(=O)Nc2ccc(Oc3ccnc(N)c3Cl)nc2)n1 [Compound 13, N-(6-((2-amino-3-chloropyridin-4-yl)oxy)pyridin-3-yl)-5-(4-fluorophenyl)-1-isopropyl-4-oxo-1,4-dihydropyridazine-3-carboxamide] |
| 24 nM | < 1.1 nM | 9 nM | Nc1nccc(Oc2ccc(NC(=O)c3nn(C4CC4)cc(-c4ccc(F)cc4)c3=O)nc2)c1Cl [Compound 17, N-(5-((2-amino-3-chloropyridin-4-yl)oxy)pyridin-2-yl)-1-cyclopropyl-5-(4-fluorophenyl)-4-oxo-1,4-dihydropyridazine-3-carboxamide] |
| 20 nM | < 1.1 nM | 4 nM | C=CCn1cc(-c2ccc(F)cc2)c(=O)c(C(=O)Nc2ccc(Oc3ccnc(N)c3Cl)cn2)n1 [Compound 35, 1-allyl-N-(5-((2-amino-3-chloropyridin-4-yl)oxy)pyridin-2-yl)-5-(4-fluorophenyl)-4-oxo-1,4-dihydropyridazine-3-carboxamide] |
| 95 nM | 1.1 to 3.3 nM | 12 nM | C=CCn1cc(-c2ccc(F)cc2)c(=O)c(C(=O)Nc2ccc(Oc3ccnc(N)c3Cl)nc2)n1 [Compound 39, 1-allyl-N-(6-((2-amino-3-chloropyridin-4-yl)oxy)pyridin-3-yl)-5-(4-fluorophenyl)-4-oxo-1,4-dihydropyridazine-3-carboxamide] |
